Assay results taken from patent US10695406B2, “Modulation of cellular stress using a B-cell oxidative and/or endoplasmic reticulum stress inhibitor and a targeting agent” (THE UNIVERSITY OF QUEENSLAND, priority 2014, dated 2020).

Legend:
[1] = system: pneumovirus of mice (PVM); test: Pneumovirus (PVM) infection of neonatal mice with IL-22 administration; assay type: in vivo, C57BL/6 mice
Protocol: Total RNA was extracted from animal tissues by homogenizing in TRIzol and separated via chloroform phase separation. RNA was purified using High Pure RNA isolation kit (ROCHE) as per the manufacturer's instructions, including DNASE treatment. Extraction purity was assessed by NANODROP, ensuring the expected A260/280 value for RNA between 1.8 and 2.0. Reverse transcription was performed on 1 μg of RNA using 5×ISCRIPT reaction mix and ISCRIPT reverse transcriptase (BIORAD). Quantitative, reverse transcription polymerase chain reaction (qRT-PCR) was performed to quantify expression of PVM gene Src homology (SH), using specific exon-spanning primer sequences and amplified with SYBR Premix Ex TAQ II polymerase (TAKARA). All gene expression was quantified in duplicate using a Viia 7 Real Time PCR System (APPLIED BIOSYSTEMS) and relative fold changes were calculated using the 2^−ΔΔCt method, comparing to the mean of naïve uninfected mice after normalizing to the β-actin housekeeping gene ACTB.
Five-day old neonatal C57BL/6 mice were administered intraperitoneal (i.p.) injections of either recombinant mouse IL-22 (rmIL-22) (20 ng/g every three days) [R&D Systems, #582-ML/CF], or an irrelevant IgG1 mock treatment control (12.5 μg/mouse, weekly) [Lilly Pharmaceuticals, LSN2404993]. […]
Paraffin embedded left lobes were sectioned onto Superfrost plus slides. […] This scoring system assessed inflammation in the small airspaces, peribronchiolar interstitial, alveolar interstitial and injury in the airway epithelium. The degree of lung injury and inflammation was scored blindly.
Cells infected by PVM were visualized by immunohistochemistry using rabbit anti-mouse PVM antibody (polyclonal at 1:8000) (ALPHA DIAGNOSTIC, PVMNP14-S). […] PVM infection was quantified by counting number of infected cells in 4-5 bronchioles per mouse and expressed as the number of infected cells per length of bronchiole epithelium. All sections were visualized on a VS120-L100 slide scanner microscope (OLYMPUS) and analyzed using OlyVIA v2.4 (OLYMPUS) and IMAGEJ v1.45s.

[2] = system: MIN6N8 murine β-cells; test: ER stress (ERAI reporter of Xbp1-splicing / Xbp1 splicing) in MIN6N8 β-cells; assay type: cell-based
Protocol: MIN6N8 cells are maintained in line with standard protocols. Cells are transfected with either the ERAI reporter plasmid (F-XBP1ΔDBD-Venus), or the ATF6-GFP plasmid (ADGENE), using LIPFECTAMINE 2000 according to the manufacturer's instructions.
On induction of ER stress, splicing of […] mRNA by IRE1a results in the translation of Venus, but not an active form of XBP1. Fluorescence was measured (excitation: 485 nm; emission: 520 nm) using the POLARstar Omega plate reader and cells were treated 48 h after transfection. The results are normalized with Gapdh expression as fold of vehicle-treated control (Con) cells.
Activation of ATF6 was assessed as follows: the area in pixels per square millimeter co-stained ATF6 and DAPI (blue and green), and total ATF6 staining (green) was determined in 5 fields of view for each section (n=6 for each condition) using IMAGEJ software version 1.45s. Data are presented as the percentage of ATF6 and DAPI co-fluorescence to the total ATF6 fluorescence. Phosphorylation of Ser-51 of eiF2 α was determined by an AlphaScreen assay as per the manufacturer's instructions (PERKIN-ELMER). The Griess reagent method was performed according to the manufacturer's instructions (MOLECULAR PROBES) to assess the intracellular levels of nitric oxide. 5-(and -6-)-carboxy-2,7-dichlorofluorescein diacetate (DCFDA) assay was used to determine the intracellular levels of H2O2 as previously described (Sakon et al., 2003). Cells were treated with glucose or recombinant cytokines at the concentrations indicated in the figure legends, or with 5 μM thapsigargin (SIGMA-ALDRICH) or 10 μg/mL tunicamycin (SIGMA-ALDRICH) or 0.1-0.5 mM Palmitate (SIGMA-ALDRICH) for the times indicated in the legends. ROS was […] using the dihydroethidium (DHE) fluorescent cell-permeable probe (SIGMA-ALDRICH). MIN6N8 cells plated at 2×10^6/mL were incubated with 3 μM DHE and subsequently treated with DMSO (control), 50 ng/mL IL-23 for 30 minutes±[…] IL-22 at the same time or 30 minutes prior to IL-23.
To inhibit transcription factors the following specific inhibitors (and concentrations) were used:
MIN6N8 cells were exposed to a panel of cytokines to determine the effect of each cytokine on ER stress. ER stress was measured using the above-described method. Specifically, the cells were exposed to either a 24 hour treatment of any one of […] glucose (hi glucose), 10 μM H2O2, 0.5 mM palmitic acid or 50 ng/mL cytokines; or a 6 hour treatment with 10 μg/mL tunicamycin or 5 μM thapsigargin.
Experiments to assess ER and/or oxidative stress, and methods of qRT-PCT and/or quantifying gene expression were performed as described for Example 1. Xbp1 splicing is assessed by qRT-PCR, with normalization versus Gapdh, and expression presented as fold of vehicle-treated control cells.

IL-22: interleukin-22; recombinant murine IL-22 (R&D SYSTEMS) in the mouse experiments
mice that died between days 5 and 6 post infection ([1]; 20 ng/g i.p. every three days, 100 PFU PVM): 7/9 | increase of PVM gene expression (PCR) ([1]; 5 days post infection): 2.2 fold | lung injury score, times higher ([1]; 5 days post infection): 1.7 times | UPR activation when ER stress is induced with thapsigargin ([2]; 5 μM thapsigargin ± IL-22, 6 hours): increases UPR activation | ER stress induced with palmitic acid ([2]; 0.1-0.5 mM palmitic acid ± IL-22, 24 hours): inhibits ER stress | lowest concentration with efficacy as suppressor of ER stress ([2]; MIN6 β-cells): around 5 ng/mL | UPR activation by the cytokine alone ([2]; no stressor): does not appear to activate the UPR | inhibition of ER stress initiated by cytokines or tunicamycin ([2]; pair-wise combinations of cytokines): inhibit ER stress
